The record followed here is patent publication US12466800B2, “N-((1,2,3,5,6,7-hexahydro-S-indacen-4-yl)carbamoyl)-4, 5, 6, 7-tetrahydrobenzofuran-2-sulfonamide derivatives and related compounds as NLPR3 modulators for the treatment of multiple sclerosis (MS)” (Zomagen Biosciences Ltd, priority 2019, dated 2025).

This test has as its system IL-1b. Put plainly: Mouse BMDM IL-1b Assay. In kind it is cell-based. The note with it: Macrophage; mouse bone marrow derived macrophages (C57BL6); 200 ng/mL LPS 3 h, compound 30 min, 5 mM ATP 45 min; IL-1b ELISA of supernatant. In a few lines: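 C57BL6 bone marrow macrophages, differentiated 7 days with 20 ng/mL MCSF, were primed with 200 ng/mL LPS for 3 h at 37° C, given compound for 30 min, then 5 mM ATP for 45 min. Supernatant IL-1b was measured by ELISA against standards; IC50 fitted by Levenberg-Marquardt.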
(In general: ELISA stands for enzyme-linked immunosorbent assay.)

On to `CC(C)c1c(F)c(Cl)c(F)c(C(C)C)c1NC(=O)NS(=O)(=O)c1cc2c(o1)CCC/C2=N/O` [Compound 100, (Z)-N-((4-chloro-3,5-difluoro-2,6-diisopropylphenyl)carbamoyl)-4-(hydroxyimino)-4,5,6,7-tetrahydrobenzofuran-2-sulfonamide], for which the IC50 lay within 1000 to 10000 nM.
`CC(C)c1c(F)c(Cl)c(F)c(C(C)C)c1NC(=O)NS(=O)(=O)c1cc2c(o1)CCC/C2=N\O` [Compound 101, (E)-N-((4-chloro-3,5-difluoro-2,6-diisopropylphenyl)carbamoyl)-4-(hydroxyimino)-4,5,6,7-tetrahydrobenzofuran-2-sulfonamide] registered a half-inhibitory concentration (IC50) of 100 to 1000 nM.
Turning to `CC(C)c1c(F)c(Cl)c(F)c(C(C)C)c1NC(=O)NS(=O)(=O)c1cc2c(o1)CCCC2O` (stereo not drawn) [Compound 102, N-((4-chloro-3,5-difluoro-2,6-diisopropylphenyl)carbamoyl)-4-hydroxy-4,5,6,7-tetrahydrobenzofuran-2-sulfonamide], the IC50 lay within 100 to 1000 nM.
Next, `CC(C)c1c(F)c(Cl)c(F)c(C(C)C)c1NC(=O)NS(=O)(=O)c1cc2c(o1)CCCC2(C)O` (stereo not drawn) [Compound 103, N-((4-chloro-3,5-difluoro-2,6-diisopropylphenyl)carbamoyl)-4-hydroxy-4-methyl-4,5,6,7-tetrahydrobenzofuran-2-sulfonamide]: 100 to 1000 nM; `O=C(O)CC1(O)CCCc2oc(S(=O)(=O)NC(=O)Nc3c4c(cc5c3CCC5)CCC4)cc21` (stereo not drawn) [Compound 104, 2-(2-(N-((1,2,3,5,6,7-hexahydro-s-indacen-4-yl)carbamoyl)sulfamoyl)-4-hydroxy-4,5,6,7-tetrahydrobenzofuran-4-yl)acetic acid]: 1000 to 10000 nM; `CCOC(=O)C#CC1(O)CCCc2oc(S(=O)(=O)NC(=O)Nc3c4c(cc5c3CCC5)CCC4)cc21` (stereo not drawn) [Compound 105, ethyl 3-(2-(N-((1,2,3,5,6,7-hexahydro-s-indacen-4-yl)carbamoyl)sulfamoyl)-4-hydroxy-4,5,6,7-tetrahydrobenzofuran-4-yl)propiolate]: 100 to 1000 nM.
In the case of `CC1(O)CCCCc2oc(S(=O)(=O)NC(=O)Nc3c4c(c(F)c5c3CCC5)CCC4)cc21` (stereo not drawn) [Compound 106, N-((8-fluoro-1,2,3,5,6,7-hexahydro-s-indacen-4-yl)carbamoyl)-4-hydroxy-4-methyl-5,6,7,8-tetrahydro-4H-cyclohepta[b]furan-2-sulfonamide], the 50% inhibitory concentration (IC50) was below 100 nM.
Take `CC1(O)CCCCc2oc(S(=O)(=O)NC(=O)Nc3c4c(c(Cl)c5c3CCC5)CCC4)cc21` (stereo not drawn) [Compound 107, N-((8-chloro-1,2,3,5,6,7-hexahydro-s-indacen-4-yl)carbamoyl)-4-hydroxy-4-methyl-5,6,7,8-tetrahydro-4H-cyclohepta[b]furan-2-sulfonamide]: the IC50 is below 100 nM.
The compound `CC1(O)CCCCc2oc(S(=O)(=O)NC(=O)Nc3c4c(c(Br)c5c3CCC5)CCC4)cc21` (stereo not drawn) [Compound 108, N-((8-bromo-1,2,3,5,6,7-hexahydro-s-indacen-4-yl)carbamoyl)-4-hydroxy-4-methyl-5,6,7,8-tetrahydro-4H-cyclohepta[b]furan-2-sulfonamide] gave an IC50 below 100 nM.
Next, `CC(C)c1cccc(C(C)C)c1NC(=O)NS(=O)(=O)c1cc2c(o1)CCCCC2(C)O` (stereo not drawn) [Compound 109, N-((2,6-diisopropylphenyl)carbamoyl)-4-hydroxy-4-methyl-5,6,7,8-tetrahydro-4H-cyclohepta[b]furan-2-sulfonamide]: 100 to 1000 nM; `CC(C)c1ccc(F)c(C(C)C)c1NC(=O)NS(=O)(=O)c1cc2c(o1)CCCCC2(C)O` (stereo not drawn) [Compound 110, N-((3-fluoro-2,6-diisopropylphenyl)carbamoyl)-4-hydroxy-4-methyl-5,6,7,8-tetrahydro-4H-cyclohepta[b]furan-2-sulfonamide]: 100 to 1000 nM; `CC(C)c1ccc(Cl)c(C(C)C)c1NC(=O)NS(=O)(=O)c1cc2c(o1)CCCCC2(C)O` (stereo not drawn) [Compound 111, N-((3-chloro-2,6-diisopropylphenyl)carbamoyl)-4-hydroxy-4-methyl-5,6,7,8-tetrahydro-4H-cyclohepta[b]furan-2-sulfonamide]: 100 to 1000 nM.
As to `CN1CCc2oc(S(=O)(=O)NC(=O)Nc3c4c(cc5c3CCC5)CCC4)cc2C1=O` [Compound 112, N-((1,2,3,5,6,7-hexahydro-s-indacen-4-yl)carbamoyl)-5-methyl-4-oxo-4,5,6,7-tetrahydrofuro[3,2-c]pyridine-2-sulfonamide], the IC50 lay in the range of 100 to 1000 nM.
Next, `CN1CCc2sc(S(=O)(=O)NC(=O)Nc3c4c(cc5c3CCC5)CCC4)cc2C1` [Compound 113, N-((1,2,3,5,6,7-hexahydro-s-indacen-4-yl)carbamoyl)-5-methyl-4,5,6,7-tetrahydrothieno[3,2-c]pyridine-2-sulfonamide]: below 100 nM; `CN1CCc2sc(S(=O)(=O)NC(=O)Nc3c4c(cc5c3CCC5)CCC4)cc2C1=O` [Compound 114, N-((1,2,3,5,6,7-hexahydro-s-indacen-4-yl)carbamoyl)-5-methyl-4-oxo-4,5,6,7-tetrahydrothieno[3,2-c]pyridine-2-sulfonamide]: 100 to 1000 nM; `CN1CCc2oc(S(=O)(=O)NC(=O)Nc3c4c(cc5c3CCC5)CCC4)cc2C1` [Compound 115, N-((1,2,3,5,6,7-hexahydro-s-indacen-4-yl)carbamoyl)-5-methyl-4,5,6,7-tetrahydrofuro[3,2-c]pyridine-2-sulfonamide]: below 100 nM.
Next, `O=C(Nc1c2c(c(F)c3c1CCC3)CCC2)NS(=O)(=O)c1cc2c(o1)CCCCC2O` (stereo not drawn) [Compound 116, N-((8-fluoro-1,2,3,5,6,7-hexahydro-s-indacen-4-yl)carbamoyl)-4-hydroxy-5,6,7,8-tetrahydro-4H-cyclohepta[b]furan-2-sulfonamide]: below 100 nM; `O=C(Nc1c2c(c(Cl)c3c1CCC3)CCC2)NS(=O)(=O)c1cc2c(o1)CCCCC2O` (stereo not drawn) [Compound 117, N-((8-chloro-1,2,3,5,6,7-hexahydro-s-indacen-4-yl)carbamoyl)-4-hydroxy-5,6,7,8-tetrahydro-4H-cyclohepta[b]furan-2-sulfonamide]: below 100 nM; `O=C(Nc1c2c(c(Br)c3c1CCC3)CCC2)NS(=O)(=O)c1cc2c(o1)CCCCC2O` (stereo not drawn) [Compound 118, N-((8-bromo-1,2,3,5,6,7-hexahydro-s-indacen-4-yl)carbamoyl)-4-hydroxy-5,6,7,8-tetrahydro-4H-cyclohepta[b]furan-2-sulfonamide]: below 100 nM.
Next, `CC(C)c1ccc(F)c(C(C)C)c1NC(=O)NS(=O)(=O)c1cc2c(o1)CCCCC2O` (stereo not drawn) [Compound 119, N-((3-fluoro-2,6-diisopropylphenyl)carbamoyl)-4-hydroxy-5,6,7,8-tetrahydro-4H-cyclohepta[b]furan-2-sulfonamide]: 100 to 1000 nM; `CC(C)c1ccc(Cl)c(C(C)C)c1NC(=O)NS(=O)(=O)c1cc2c(o1)CCCCC2O` (stereo not drawn) [Compound 120, N-((3-chloro-2,6-diisopropylphenyl)carbamoyl)-4-hydroxy-5,6,7,8-tetrahydro-4H-cyclohepta[b]furan-2-sulfonamide]: 100 to 1000 nM; `CC(C)c1cc(F)cc(C(C)C)c1NC(=O)NS(=O)(=O)c1cc2c(o1)CCCCC2(C)O` (stereo not drawn) [Compound 121, N-((4-fluoro-2,6-diisopropylphenyl)carbamoyl)-4-hydroxy-4-methyl-5,6,7,8-tetrahydro-4H-cyclohepta[b]furan-2-sulfonamide]: 100 to 1000 nM.
Regarding `CC(C)c1cc(Cl)cc(C(C)C)c1NC(=O)NS(=O)(=O)c1cc2c(o1)CCCCC2(C)O` (stereo not drawn) [Compound 122, N-((4-chloro-2,6-diisopropylphenyl)carbamoyl)-4-hydroxy-4-methyl-5,6,7,8-tetrahydro-4H-cyclohepta[b]furan-2-sulfonamide], the IC50 is below 100 nM.
Next, `CC1(O)CCCc2sc(S(=O)(=O)NC(=O)Nc3c4c(cc5c3CCC5)CCC4)cc21` (stereo not drawn) [Compound 123, N-((1,2,3,5,6,7-hexahydro-s-indacen-4-yl)carbamoyl)-4-hydroxy-4-methyl-4,5,6,7-tetrahydrobenzo[b]thiophene-2-sulfonamide]: below 100 nM.
Next, `O=C(Nc1c2c(cc3c1CCC3)CCC2)NS(=O)(=O)c1cc2c(s1)CCCC2O` (stereo not drawn) [Compound 124, N-((1,2,3,5,6,7-hexahydro-s-indacen-4-yl)carbamoyl)-4-hydroxy-4,5,6,7-tetrahydrobenzo[b]thiophene-2-sulfonamide]: below 100 nM.
Next, `O=C(Nc1c2c(cc3c1CCC3)CCC2)NS(=O)(=O)c1cc2c(s1)CCC/C2=N/O` [Compound 125, (Z)-N-((1,2,3,5,6,7-hexahydro-s-indacen-4-yl)carbamoyl)-4-(hydroxyimino)-4,5,6,7-tetrahydrobenzo[b]thiophene-2-sulfonamide]: below 100 nM.
With `O=C(O)CCC1(O)CCCc2oc(S(=O)(=O)NC(=O)Nc3c4c(cc5c3CCC5)CCC4)cc21` (stereo not drawn) [Compound 126, 3-(2-(N-((1,2,3,5,6,7-hexahydro-s-indacen-4-yl)carbamoyl)sulfamoyl)-4-hydroxy-4,5,6,7-tetrahydrobenzofuran-4-yl)propanoic acid], the IC50 was 100 to 1000 nM.

What is called IC50 is the point on the concentration scale where inhibition reaches its midpoint. Read a low IC50 as higher potency.
